Measured values reported in patent US10952436B2, “Microbiocidal quinoline (thio)carboxamide derivatives” (SYNGENTA PARTICIPATIONS AG, priority 2017, dated 2021).
Like-named read-outs stand apart in the source and are kept apart here.

Experiments:
[1] = system: Magnaporthe grisea (Pyricularia oryzae); assay: microbe, parasite or virus in culture; format: cell-based; settings: read-out: control of Magnaporthe grisea
[2] = system: Glomerella lagenarium (Colletotrichum lagenarium); assay: Glomerella lagenarium (Colletotrichum lagenarium)/Liquid Culture (Anthracnose); format: cell-based; settings: Colletotrichum orbiculare, read-out: control of Glomerella lagenarium
[3] = system: Monographella nivalis (Microdochium nivale); assay: Monographella nivalis (Microdochium nivale)/Liquid Culture (Foot Rot Cereals); format: cell-based; settings: read-out: control of Monographella nivalis
Gaeumannomyces graminis = assay: Gaeumannomyces graminis/Liquid Culture (Take-all of Cereals); format: cell-based; settings: read-out: control of Gaeumannomyces graminis
Fusarium culmorum [4] = assay: microbe, parasite or virus in culture; format: cell-based; settings: read-out: control of Fusarium culmorum
[5] = system: Botryotinia fuckeliana (Botrytis cinerea); assay: Botryotinia fuckeliana (Botrytis cinerea)/Liquid Culture (Gray Mould); format: cell-based; settings: read-out: control of Botryotinia fuckeliana
Fusarium culmorum [6] = assay: whole plant or invertebrate; format: in vivo; settings: in Triticum aestivum, read-out: control of Fusarium culmorum
Sclerotinia sclerotiorum = assay: Sclerotinia sclerotiorum/Liquid Culture (Cottony Rot); settings: read-out: control of Sclerotinia sclerotiorum
Protocol: Mycelia fragments of a newly grown liquid culture of the fungus are directly mixed into nutrient broth (Vogels broth). After placing a (DMSO) solution of test compound into a microtiter plate (96-well format) the nutrient broth containing the fungal material is added. The test plates are incubated at 24° C. and the inhibition of growth is determined photometrically 3-4 days after application.

[7] = system: Magnaporthe grisea (Pyricularia oryzae); assay: whole plant or invertebrate; format: in vivo; settings: foliar, read-out: control of Magnaporthe grisea
[8] = 200 ppm, liquid culture, compared to untreated control, 3-4 days after application
[9] = 200 ppm, liquid culture, compared to untreated control, 4-5 days after application

**Q.** Which results are given for `C=C(C)CC(C)(Cc1ccccc1)C(=O)Nc1cnc2c(F)cccc2c1C` (stereo not drawn) [Compound E-65, 2-benzyl-N-(8-fluoro-4-methyl-3-quinolyl)-2,4-dimethyl-pent-4-enamide]?
**A.** inhibition of growth at 200 ppm [1]: ≥ 80%; melting point: 105 to 109 °C; inhibition of growth at 200 ppm [2, 8]: ≥ 80%; inhibition of growth at 200 ppm [3, 9]: ≥ 80%; inhibition of growth at 200 ppm (Gaeumannomyces graminis; [9]): ≥ 80%; inhibition of growth at 200 ppm (Fusarium culmorum [4]): ≥ 80%; inhibition of growth at 200 ppm [5, 8]: ≥ 80%

**Q.** Which results are given for `CC(F)(F)CC(C)(Cc1ccccc1)C(=O)Nc1cnc2c(F)cccc2c1` (stereo not drawn) [Compound E-68, 2-benzyl-4,4-difluoro-N-(8-fluoro-3-quinolyl)-2-methyl-pentanamide]?
**A.** inhibition of growth at 200 ppm [1]: ≥ 80%; melting point: 156 to 158 °C; inhibition of growth at 200 ppm [2, 8]: ≥ 80%; inhibition of growth at 200 ppm [3, 9]: ≥ 80%; pest or weed control at 200 ppm (Fusarium culmorum [6]): ≥ 80%; inhibition of growth at 200 ppm (Gaeumannomyces graminis; [9]): ≥ 80%; inhibition of growth at 200 ppm (Fusarium culmorum [4]): ≥ 80%; inhibition of growth at 200 ppm [5, 8]: ≥ 80%

**Q.** With `CC1(CC(C)(Cc2ccccc2)C(=O)Nc2cnc3c(F)cccc3c2)CC1` (stereo not drawn) [Compound E-70, 2-benzyl-N-(8-fluoro-3-quinolyl)-2-methyl-3-(1-methylcyclopropyl) propanamide] as the compound, how does the inhibition of growth at 200 ppm [1] read?
**A.** ≥ 80%

**Q.** What about the melting point of the same compound?
**A.** 149 to 151 °C

**Q.** What about the inhibition of growth at 200 ppm [2, 8] of the same compound?
**A.** ≥ 80%

**Q.** What about the inhibition of growth at 200 ppm (Gaeumannomyces graminis; [9]) of the same compound?
**A.** ≥ 80%

**Q.** And the inhibition of growth at 200 ppm (Fusarium culmorum [4])?
**A.** ≥ 80%

**Q.** What about the inhibition of growth at 200 ppm [5, 8] of the same compound?
**A.** ≥ 80%

**Q.** What does the source list for `C=C(F)CC(C)(Cc1ccccc1)C(=O)Nc1cnc2c(F)cccc2c1` (stereo not drawn) [Compound E-71, 2-benzyl-4-fluoro-N-(8-fluoro-3-quinolyl)-2-methyl-pent-4-enamide]?
**A.** inhibition of growth at 200 ppm [1]: ≥ 80%; melting point: 132 to 134 °C; inhibition of growth at 200 ppm [2, 8]: ≥ 80%; inhibition of growth at 200 ppm [3, 9]: ≥ 80%; pest or weed control at 200 ppm (Fusarium culmorum [6]): ≥ 80%; inhibition of growth at 200 ppm (Gaeumannomyces graminis; [9]): ≥ 80%; inhibition of growth at 200 ppm (Fusarium culmorum [4]): ≥ 80%; inhibition of growth at 200 ppm [5, 8]: ≥ 80%

**Q.** Which results are given for `C=C(C)CC(C)(Cc1ccccc1)C(=O)Nc1cnc2c(F)cccc2c1` (stereo not drawn) [Compound E-74, 2-benzyl-N-(8-fluoro-3-quinolyl)-2,4-dimethyl-pent-4-enamide]?
**A.** inhibition of growth at 200 ppm [1]: ≥ 80%; melting point: 147 to 149 °C; inhibition of growth at 200 ppm [2]: ≥ 80%; inhibition of growth at 200 ppm [3]: ≥ 80%; inhibition of growth at 20 ppm (Sclerotinia sclerotiorum): ≥ 80%; pest or weed control at 200 ppm (Fusarium culmorum [6]): ≥ 80%; inhibition of growth at 200 ppm (Gaeumannomyces graminis): ≥ 80%; inhibition of growth at 200 ppm (Fusarium culmorum [4]): ≥ 80%; inhibition of growth at 200 ppm [5]: ≥ 80%

**Q.** For `CC(Cc1ccccc1)(CC1CC1)C(=O)Nc1cnc2c(F)cccc2c1` (stereo not drawn) [Compound E-76, 2-benzyl-3-cyclopropyl-N-(8-fluoro-3-quinolyl)-2-methyl-propanamide], which inhibition of growth at 200 ppm [1] is on record?
**A.** ≥ 80%

**Q.** And the melting point?
**A.** 157 to 159 °C

**Q.** And the pest or weed control at 200 ppm [7]?
**A.** ≥ 80%

**Q.** And the inhibition of growth at 200 ppm [2, 8]?
**A.** ≥ 80%

**Q.** What about the inhibition of growth at 200 ppm [3, 9] of the same compound?
**A.** ≥ 80%

**Q.** And the inhibition of growth at 200 ppm (Gaeumannomyces graminis; [9])?
**A.** ≥ 80%

**Q.** And the inhibition of growth at 200 ppm (Fusarium culmorum [4])?
**A.** ≥ 80%

**Q.** And the inhibition of growth at 200 ppm [5, 8]?
**A.** ≥ 80%

**Q.** Which results are given for `O=C(Nc1cnc2c(F)cccc2c1)C(Cc1ccccc1)CC(F)(F)F` (stereo not drawn) [Compound E-82, 2-benzyl-4,4,4-trifluoro-N-(8-fluoro-3-quinolyl)butanamide]?
**A.** inhibition of growth at 200 ppm [1]: ≥ 80%; melting point: 161 to 164 °C; inhibition of growth at 200 ppm [2, 8]: ≥ 80%; inhibition of growth at 200 ppm [3, 9]: ≥ 80%; pest or weed control at 200 ppm (Fusarium culmorum [6]): ≥ 80%; inhibition of growth at 200 ppm (Gaeumannomyces graminis; [9]): ≥ 80%; inhibition of growth at 200 ppm (Fusarium culmorum [4]): ≥ 80%; inhibition of growth at 200 ppm [5, 8]: ≥ 80%

**Q.** Which inhibition of growth at 200 ppm [1] does the source give for `CC(C)CC(C#N)(Cc1ccccc1)C(=O)Nc1cnc2c(F)cccc2c1` (stereo not drawn) [Compound E-83, 2-benzyl-2-cyano-N-(8-fluoro-3-quinolyl)-4-methyl-pentanamide] here?
**A.** ≥ 80%

**Q.** What about the inhibition of growth at 200 ppm [2, 8] of the same compound?
**A.** ≥ 80%

**Q.** And the inhibition of growth at 200 ppm [3, 9]?
**A.** ≥ 80%

**Q.** What about the pest or weed control at 200 ppm (Fusarium culmorum [6]) of the same compound?
**A.** ≥ 80%

**Q.** And the inhibition of growth at 200 ppm (Gaeumannomyces graminis; [9])?
**A.** ≥ 80%

**Q.** And the inhibition of growth at 200 ppm (Fusarium culmorum [4])?
**A.** ≥ 80%

**Q.** And the inhibition of growth at 200 ppm [5, 8]?
**A.** ≥ 80%

**Q.** For `CC(C)CC(C)(Cc1ccccc1)C(=O)Nc1cnc2ccccc2c1` (stereo not drawn) [Compound E-85, 2-benzyl-2,4-dimethyl-N-(3-quinolyl)pentanamide], which melting point is on record?
**A.** 147 to 148 °C

**Q.** What about the inhibition of growth at 200 ppm [2, 8] of the same compound?
**A.** ≥ 80%

**Q.** And the inhibition of growth at 200 ppm (Gaeumannomyces graminis; [9])?
**A.** ≥ 80%

**Q.** And the inhibition of growth at 200 ppm (Fusarium culmorum [4])?
**A.** ≥ 80%

**Q.** And the inhibition of growth at 200 ppm [5, 8]?
**A.** ≥ 80%

**Q.** Which inhibition of growth at 200 ppm [1] does the source give for `CC(C)CC(C)(Cc1ccccc1)C(=O)Nc1cnc2c(F)cccc2c1` (stereo not drawn) [Compound E-87, 2-benzyl-N-(8-fluoro-3-quinolyl)-2,4-dimethyl-pentanamide] here?
**A.** ≥ 80%

**Q.** What about the melting point of the same compound?
**A.** 140 to 142 °C

**Q.** What about the inhibition of growth at 200 ppm [2, 8] of the same compound?
**A.** ≥ 80%

**Q.** And the inhibition of growth at 200 ppm [3, 9]?
**A.** ≥ 80%

**Q.** What about the inhibition of growth at 20 ppm (Sclerotinia sclerotiorum) of the same compound?
**A.** ≥ 80%

**Q.** What about the pest or weed control at 200 ppm (Fusarium culmorum [6]) of the same compound?
**A.** ≥ 80%

**Q.** And the inhibition of growth at 200 ppm (Gaeumannomyces graminis; [9])?
**A.** ≥ 80%

**Q.** What about the inhibition of growth at 200 ppm (Fusarium culmorum [4]) of the same compound?
**A.** ≥ 80%

**Q.** What about the inhibition of growth at 200 ppm [5, 8] of the same compound?
**A.** ≥ 80%
